Reference: EP0684766B1, “HERBICIDAL COMPOSITIONS” (Hoechst Schering AgrEvo GmbH, priority 1993, dated 1994)

What was measured:
[1] = system: Stellaria media; assay: Post-emergent field test on winter cereals, % control of weeds; settings: for % Control STEME: post-emergent
Protocol: (§1) The Examples are field tests carried out post-emergently in the Autumn on winter cereals. The compositions are evenly applied to the plants as suspensions using a water amount of 500 litres per hectare. […] The evaluation of the individual components (a) and (b) as well as their mixtures was carried out on a scale where 0 is no damage and 100 is complete destruction of the plants.

[2] = system: Galium aparine; assay: as above; settings: for % Control GALAP: post-emergent
Protocol: as §1

[3] = system: Viola arvensis; assay: as above; settings: for % Control VIOLA: post-emergent
Protocol: as §1

[4] = system: Matricaria chamomilla; assay: as above; settings: for % Control MATCH: post-emergent
Protocol: as §1

[5] = system: plants; assay: Herbicidal activity of the phosphonate applied on its own; assay type: in vivo
[6] = 15 g ai/ha, evaluation 30 days after application
[7] = 24 g ai/ha, evaluation 15 days after application
[8] = 48 g ai/ha, evaluation 15 days after application
[9] = 48 g ai/ha, evaluation 30 days after application
[10] = 95 g ai/ha, evaluation 15 days after application
[11] = 10 g ai/ha, evaluation 15 days after application
[12] = Stellaria media, post-emergence, 360 h, read-out: % Control STEME
[13] = Galium aparine, post-emergence, 360 h, read-out: % Control GALAP
[14] = Viola arvensis, post-emergence, 360 h, read-out: % Control VIOLA
[15] = Matricaria chamomilla, post-emergence, 360 h, read-out: % Control MATCH
[16] = Stellaria media, post-emergence, 720 h, read-out: % Control STEME
[17] = Galium aparine, post-emergence, 720 h, read-out: % Control GALAP
[18] = Viola arvensis, post-emergence, 720 h, read-out: % Control VIOLA
[19] = Matricaria chamomilla, post-emergence, 720 h, read-out: % Control MATCH

COC(=O)c1ccccc1S(=O)(=O)NC(=O)N(C)c1nc(C)nc(OC)n1
% Control STEME [1, 6]: 78% | % Control GALAP [2, 6]: 47% | % Control VIOLA [3, 6]: 40% | % Control MATCH [4, 6]: 88%

CCCCC(CC)COP(=O)(CC(CC)CCCC)OCC(CC)CCCC (stereo not shown) [(a), O,O-bis(2-ethylhexyl)(2-ethylhexyl)phosphonate]
herbicidal activity [5]: no herbicidal activity | % Control STEME [1, 7]: 0% | % Control STEME [1, 8]: 0% | % Control STEME [1, 9]: 0% | % Control STEME [1, 10]: 0% | % Control GALAP [2, 7]: 0% | % Control GALAP [2, 8]: 0% | % Control GALAP [2, 9]: 0% | % Control GALAP [2, 10]: 0% | % Control VIOLA [3, 8]: 0% | % Control VIOLA [3, 9]: 0% | % Control VIOLA [3, 10]: 0% | % Control MATCH [4, 7]: 0% | % Control MATCH [4, 8]: 0% | % Control MATCH [4, 9]: 0% | % Control MATCH [4, 10]: 0%

C#CCN1C(=O)COc2cc(F)c(N=c3snc4n3CC(C)(C)C4)cc21 [(b1), 6-(6,7-dihydro-6,6-dimethyl-3H,5H-pyrrolo[2,1-c][1,2,4]thiadiazol-3-ylidenimino)-7-fluoro-4-(2-propynyl)-2H-1,4-benzoxazin-3(4H)-one]
% Control STEME [1, 11]: 70% | % Control GALAP [2, 11]: 47% | % Control MATCH [4, 11]: 50%

C#CCN1C(=O)COc2cc(F)c(N3C(=O)C4CCCCN4C3=O)cc21 (stereo not shown) [(b2), 2-[7-fluoro-3-oxo-4-(2-propynyl)-3,4-dihydro-2H-1,4-benzoxazin-6-yl]perhydroimidazo[1,5-a]pyridine-1,3-dione]
pest or weed control at 15 g/ha [1, 12]: 27% | pest or weed control at 15 g/ha [2, 13]: 35% | pest or weed control at 15 g/ha [3, 14]: 37% | pest or weed control at 15 g/ha [4, 15]: 90%

CCc1nc2c(Cl)cc(F)c(N3C(=O)C4=C(CCCC4)C3=O)c2s1 [(b3), N-(4-chloro-2-ethyl-6-fluorobenzothiazol-7-yl)-1-cyclohexene-1,2-dicarboximide]
pest or weed control at 15 g/ha [1, 12]: 20% | pest or weed control at 15 g/ha [2, 13]: 33% | pest or weed control at 15 g/ha [3, 14]: 83% | pest or weed control at 15 g/ha [4, 15]: 99%

COc1cc(OC)nc(NC(=O)NS(=O)(=O)N(C)S(C)(=O)=O)n1 [(b4), 3-[4,6-dimethoxypyrimidin-2-yl)-1-(N-methyl-N-methylsulfonyl-aminosulfonyl)urea]
pest or weed control at 12 g/ha [1, 16]: 40% | pest or weed control at 12 g/ha [2, 17]: 42% | pest or weed control at 12 g/ha [3, 18]: 20% | pest or weed control at 12 g/ha [4, 19]: 55%

CC(C)c1ccc(NC(=O)N(C)C)cc1 [(b6), isoproturon]
pest or weed control at 750 g/ha [1, 16]: 55% | pest or weed control at 750 g/ha [2, 17]: 13% | pest or weed control at 750 g/ha [3, 18]: 30% | pest or weed control at 750 g/ha [4, 19]: 83%

Cc1ccc(NC(=O)N(C)C)cc1Cl [(b7), chlorotoluron]
pest or weed control at 750 g/ha [1, 16]: 85% | pest or weed control at 750 g/ha [2, 17]: 15% | pest or weed control at 750 g/ha [3, 18]: 23% | pest or weed control at 750 g/ha [4, 19]: 88%

CCOC(=O)Cn1c(=O)sc2cccc(Cl)c21 [(b8), benazolin-ethyl]
pest or weed control at 200 g/ha [1, 16]: 88% | pest or weed control at 200 g/ha [2, 17]: 18% | pest or weed control at 200 g/ha [3, 18]: 22%

O=C(O)CNCP(=O)(O)O [(b9), glyphosate]
pest or weed control at 50 g/ha [1, 16]: 25% | pest or weed control at 50 g/ha [2, 17]: 20% | pest or weed control at 50 g/ha [3, 18]: 10% | pest or weed control at 50 g/ha [4, 19]: 28%

COC(=O)c1cc(Oc2ccc(Cl)cc2Cl)ccc1[N+](=O)[O-] [bifenox]
pest or weed control at 500 g/ha [1, 12]: 15% | pest or weed control at 500 g/ha [2, 13]: 78% | pest or weed control at 500 g/ha [3, 14]: 95% | pest or weed control at 500 g/ha [4, 15]: 63%

COc1nc(C)nc(=NC(=O)NS(=O)(=O)c2ccccc2C(=O)O)[nH]1 [metsulfuron]
pest or weed control at 3 g/ha [1, 16]: 96% | pest or weed control at 3 g/ha [2, 17]: 10% | pest or weed control at 3 g/ha [3, 18]: 50% | pest or weed control at 3 g/ha [4, 19]: 97%
